14 compounds from US11819025B2, “Active compound combinations having insecticidal/acaricidal properties” (Bayer Aktiengesellschaft, priority 2017, dated 2023) can be followed below.

SMILES strings stand for the structures. Like-named read-outs stand apart in the source and are kept apart here.

Common to all, as to type: in vivo
For test [1], the system named is Tetranychus urticae. As to the kind of experiment: Tetranychus urticae - spray test, OP-resistant (Example B, infested bean plants). Conditions: single active ingredient, mortality. As to the method: (§1) E is the efficacy expressed in % mortality of the untreated control using the mixture of A and B at m and n ppm respectively m and n g/ha, • then is
Tetranychus urticae—Spray Test; OP-Resistant
(§2) Solvent: 7 parts by weight of dimethylformamide
Emulsifier: alkylaryl polyglycol ether
Further test concentrations are prepared by dilution with emulsifier containing water.
After the specified period of time mortality in % is determined. 100% means all the spider mites have been killed and 0% means none of the spider mites have been killed. The mortality values determined thus are recalculated using the Colby-formula (see above).

In test [2] the test system is Tetranychus urticae. As to the kind of experiment: Tetranychus urticae - spray test, OP-resistant (Example A, French bean leaf disks). Conditions: for pest or weed control at 1.2 g/ha: 1.2 g ai/ha.
Excerpt: as §1
Tetranychus urticae—Spray Test OP-Resistant
Solvent: 78.0 parts by weight acetone • 1.5 parts by weight dimethylformamide
Emulsifier: alkylarylpolyglycol ether […]
French bean (Phaseolus vulgaris) leaf disks infected with all instars of the two spotted spidermite (Tetranychus urticae), are sprayed with a preparation of the active ingredient of the desired concentration.
After the specified period of time, mortality in % is determined. 100% means all spider mites have been killed and 0% means none of the spider mites have been killed. The mortality values determined thus are recalculated using the Colby-formula (see above).

The subject of test [3] is Meloidogyne incognita. The test is described as follows: Meloidogyne incognita - test (Example D, soil drench, salad seeds, gall formation). The note with it: single active ingredient, reduction of gall formation. As to the method:
The expected efficacy of a given combination of two compounds is calculated as follows (see Colby, S. R., “Calculating Synergistic and antagonistic Responses of Herbicide Combinations”, Weeds 15, pp. 20-22, 1967): • If • X is the efficacy expressed in % mortality of the untreated control for test compound A at a concentration of m ppm respectively m g/ha, • Y is the efficacy expressed in % mortality of the untreated control for test compound B at a concentration of n ppm respectively n g/ha,
as §1
[formula] • If the observed insecticidal efficacy of the combination is higher than the one calculated as “E”, then the combination of the two compounds is more than additive, i.e., there is a synergistic effect.
Meloidogyne incognita—Test
as §2
Emulsifier: 2.5 parts by weight of alkylarylpolyglycolether
To produce a suitable preparation of active compound, 1 part by weight of active compound is mixed with the stated amount of solvent and emulsifier and is diluted with water to the desired concentration. To produce a suitable preparation of a spore suspension the spores are diluted with emulsifier containing water to the desired concentration. In the calculation of the concentration the soil volume has to be included. […] Further test concentrations are prepared by dilution with water.
The compound solution is poured into pots filled with soil (loamy sand). A suspension containing eggs and larvae of the southern root-knot nematode (Meloidogyne incognita) is added, salad seeds are spread on the soil surface and covered with quartz sand. The salad seeds germinate and the seedlings grow. Galls develop on the roots.
After the specified period of time the nematicidal activity is determined on the basis of the percentage of gall formation. 100% means no galls were found; 0% means the number of galls found on the roots of the treated plants was equal to that in untreated control plants. The activity determined thus is recalculated using the Colby-formula (see above).

The subject of test [4] is Meloidogyne incognita. As to the kind of experiment: Meloidogyne incognita - test (Example C, sand, salad seeds, gall formation). Conditions: single active ingredient, reduction of gall formation. How it is done:
Meloidogvne incognita—Test
Solvent: 125.0 parts by weight of acetone
To produce a suitable preparation of active compound, 1 part by weight of active compound is mixed with the stated amount of solvent, and the concentrate is diluted with water to the desired concentration.
To produce a suitable preparation of a spore suspension the spores are diluted with water to the desired concentration.
Vessels are filled with sand, a solution of the active ingredient, a suspension containing eggs and larvae of the southern root-knot nematode (Meloidogyne incognita) and salad seeds. The salad seeds germinate and the seedlings grow. Galls develop in the roots.
After the specified period of time nematicidal activity is determined on the basis of the percentage of gall formation. 100% means no galls were found and 0% means the number of galls found on the roots of the treated plants was equal to that in untreated control plants.

[5] abbreviates: Tetranychus urticae, foliar, 144 h, single active ingredient, mortality, read-out: Efficacy in % after 6 days.
[6] abbreviates: 0.5 g ai/ha, single active ingredient, mortality.
Where [7] appears, read: Tetranychus urticae, foliar, 144 h, read-out: Efficacy in % after 6 days.
The mark [8] stands for this setting: Tetranychus urticae, foliar, 144 h, 0.5 g ai/ha, single active ingredient, mortality, read-out: Efficacy in % after 6 days.

Take `Cc1cc(F)c(N=C2SCC(=O)N2CC(F)(F)F)cc1[S+]([O-])CC(F)(F)F` (centres unmarked) [Cpd of formula (I)]: the “Efficacy in % after 7 days” value in test [1] (0.2 ppm) was determined as 0%; in test [1] (0.4 ppm), 10%. For the same compound, the “Efficacy in % after 4 days” value in test [1] (0.4 ppm) came to 0%; in test [1] (0.8 ppm), 25%. The pest or weed control at 1.2 g/ha in test [2] (setting [5]) worked out at 70%. The results for the “Efficacy in % after 20 days” value in test [3] (10 ppm) and in test [3] (20 ppm) were 0% and 15%, respectively.

On to `CC(C)c1cc(Oc2ccccc2)cc(C(C)C)c1NC(=S)NC(C)(C)C` [Diafenthiuron, diafenthiuron], for which the “Efficacy in % after 7 days” value in test [1] (3.2 ppm) is listed as 15%. Besides, the “Efficacy in % after 2 days” value in test [2] (setting [6]) was 0%. Moreover, in test [2] (setting [7]), the pest or weed control at 0.5 g/ha stood at 0% and the pest or weed control at 3 g/ha was found to be 0%.

As to `O=S(=O)(CCC(F)=C(F)F)c1ncc(Cl)s1` [Fluensulfone], the “Efficacy in % after 14 days” value in test [4] (0.1 ppm) and in test [4] (0.2 ppm) was 0% throughout. In addition, the “Efficacy in % after 20 days” value in test [3] (0.4 ppm) came to 0%.

Consider `CC(C)(C)c1ccc(CSc2cnn(C(C)(C)C)c(=O)c2Cl)cc1` [Pyridaben, pyridaben], for which the pest or weed control at 0.5 g/ha in test [2] (setting [8]) came to 0%.

As to `CC(C)(C)c1ccc(CCOc2ncnc3ccccc23)cc1` [Fenazaquin, fenazaquin], the pest or weed control at 1.2 g/ha in test [2] (setting [5]) was determined as 0%. For the same compound, the pest or weed control at 2.4 g/ha in test [2] (Tetranychus urticae, foliar, 144 h, 2.4 g ai/ha, single active ingredient, mortality, read-out: Efficacy in % after 6 days) is 0%.

Take `c1ccc(-c2noc(-c3cccs3)n2)cc1` [Tioxazafen]: the “Efficacy in % after 20 days” value in test [3] (1.25 ppm) worked out at 0%.

`CCc1nn(C)c(C(=O)NCc2ccc(C(C)(C)C)cc2)c1Cl` [Tebufenpyrad, tebufenpyrad]: the “Efficacy in % after 2 days” value in test [2] (setting [6]) came to 0%. In test [2] (setting [8]), the pest or weed control at 0.5 g/ha amounted to 0%.

Take `CNC(=O)Oc1cc(C)c(SC)c(C)c1` [Methiocarb, 4-methylthio-3,5-xylyl methylcarbamate]: in test [2] (Tetranychus urticae, foliar, 144 h, 6 g ai/ha, single active ingredient, mortality, read-out: Efficacy in % after 6 days), the pest or weed control at 6 g/ha was determined as 0%. Further, in test [2] (Tetranychus urticae, foliar, 144 h, 12 g ai/ha, single active ingredient, mortality, read-out: Efficacy in % after 6 days), the pest or weed control at 12 g/ha amounted to 0%.

As to `CCCCCCCCCCCCC1=C(OC(C)=O)C(=O)c2ccccc2C1=O` [Acequinocyl, acequinocyl], the “Efficacy in % after 2 days” value in test [2] (1 g ai/ha, single active ingredient, mortality) is 0%. Further, the pest or weed control at 1 g/ha in test [2] (Tetranychus urticae, foliar, 144 h, 1 g ai/ha, single active ingredient, mortality, read-out: Efficacy in % after 6 days) worked out at 0%.

Turning to `COc1ccc(Cl)c(S(=O)(=O)NC(=O)c2cn3cc(C(F)(F)F)cc(Cl)c3n2)c1` [Fluazaindolizine], in test [4] (0.025 ppm), the “Efficacy in % after 14 days” value came to 0%. For the same compound, the “Efficacy in % after 20 days” value in test [3] (0.2 ppm) is 0%; in test [3] (0.4 ppm), 40%.

Take `O=C(NCCc1ncc(C(F)(F)F)cc1Cl)c1ccccc1C(F)(F)F` [Fluopyram]: the “Efficacy in % after 20 days” value in test [3] (0.04 ppm) and in test [3] (0.08 ppm) was 0% in each case.

As for `O=C(Nc1ccn(-c2c(F)cccc2F)n1)c1ccccc1C(F)(F)F` [Cpd of formula (IIb), N-[1-(2,6-difluorophenyl)-1H-pyrazol-3-yl]-2-(trifluoromethyl)benzamide], the “Efficacy in % after 14 days” value in test [4] (1.5 ppm) worked out at 0%. In test [3] (0.4 ppm), the “Efficacy in % after 20 days” value was 0%.

Take `Cc1nn(C)c(Oc2ccccc2)c1C=NOCc1ccc(C(=O)OC(C)(C)C)cc1` [Fenpyroximate, fenpyroximate]: the pest or weed control at 0.2 g/ha in test [2] (setting [7]) was 0%.

For the compound `COc1ccc(-c2ccccc2)cc1NNC(=O)OC(C)C` [Bifenazate], the “Efficacy in % after 7 days” value in test [1] (2 ppm) came to 65%. The pest or weed control at 0.25 g/ha in test [2] (Tetranychus urticae, foliar, 144 h, 0.25 g ai/ha, single active ingredient, mortality, read-out: Efficacy in % after 6 days) is 0%. For the same compound, the pest or weed control at 1.8 g/ha in test [2] (Tetranychus urticae, foliar, 144 h, 1.8 g ai/ha, single active ingredient, mortality, read-out: Efficacy in % after 6 days) was 0%.
